Test system: NFE2L1/TCF11/NRF1, SQSTM1/p62, LC3, NQO1 and HSPA1A/HSP70-1 protein levels
Assay: Immunoblot analysis in HEK293 cells
Assay type: cell-based, human
Conditions: for LC3-I protein level, Treatment geometric mean / LC3-II protein level, Treatment geometric mean / HSPA1A protein level, Treatment geometric mean / LC3-total protein level, Treatment geometric mean / NFE2L1 protein level, Treatment geometric mean / NQO1 protein level, Treatment geometric mean / SQSTM1 protein level, Treatment geometric mean: immunoblot quantification; for LC3-I protein level, Treatment geometric mean / LC3-II protein level, Treatment geometric mean / HSPA1A protein level, Treatment geometric mean / LC3-total protein level, Treatment geometric mean / NFE2L1 protein level, Treatment geometric mean / NQO1 protein level, Treatment geometric mean / SQSTM1 protein level, Treatment geometric mean / HSPA1A protein level, geometric mean of ratios / LC3-II protein level, geometric mean of ratios / LC3-total protein level, geometric mean of ratios / NFE2L1 protein level, geometric mean of ratios / NQO1 protein level, geometric mean of ratios / SQSTM1 protein level, geometric mean of ratios: Fig. 2B; for LC3-I protein level, Treatment geometric mean: control geometric mean = 0.24; for LC3-II protein level, Treatment geometric mean: control geometric mean = 0.73; for HSPA1A protein level, Treatment geometric mean / LC3-total protein level, Treatment geometric mean / NFE2L1 protein level, Treatment geometric mean / NQO1 protein level, Treatment geometric mean / SQSTM1 protein level, Treatment geometric mean: control geometric mean = 1; for HSPA1A protein level, geometric mean of ratios / LC3-II protein level, geometric mean of ratios / LC3-total protein level, geometric mean of ratios / NFE2L1 protein level, geometric mean of ratios / NQO1 protein level, geometric mean of ratios / SQSTM1 protein level, geometric mean of ratios: ratio paired t test, treatment vs control
Experimental: Fig. 2 (A) qPCRs of HEK293 cells treated with RUN compounds (7.5 μM) for 16 hours. The extracted RNA was reverse transcribed into cDNA and utilized for RT-qPCR (primers are listed in the SI, Table S1); the mRNA levels of RPLP0 were used for normalization. The experiment was performed in three biological replicates (n = 3). (B) Immunoblot analysis of proteins NFE2L1/TCF11/NRF1, SQSTM1/p62, LC3, NQO1 and HSPA1A/HSP70-1 in HEK293 cells after 16 h treatment with 7.5 μM RUN compounds. The protein levels were quantified by measuring the integrated fluorescence of the corresponding protein bands and normalized to the β-actin load. The full-length (F) and cleaved (C) forms of NFE2L1 were analyzed together. The experiment was performed in four biological replicates (n = 4) except for NFE2L1 (n = 3). (A and B) Results of RUN compounds were compared to the DMSO control using ratio paired t-tests corrected for multiple comparisons with Holm–Šídák's method (α = 0.05). *p < 0.05, **p < 0.01. Detailed results of the analysis are shown in SI Tables S5 and S6.
To confirm NFE2L1-controlled gene expression at the protein level, western blot analysis was performed. HEK293 cells were treated with selected RUN compounds for 16 hours, after which the protein levels were analyzed. […] Similar observations were made with SQSTM1 and LC3. As mentioned earlier, SQSTM1 directly binds to the LC3 region to facilitate the delivery of proteins for autophagic clearance.[62,64,65] Within cells, LC3 undergoes cleavage to form its cytosolic version, LC3-I, which is further converted into its membrane-bound form, LC3-II, which is anchored in autophagosomal membranes.[60,66] Consequently, both SQSTM1 and LC3 are widely regarded as markers of autophagy.[65] […] The increase in the LC3-II form indicates active autophagic processes. […]
HEK293 cells were treated with 7.5 µM RUN compounds for 16 h, then harvested and resuspended in lysis buffer [50 mM HEPES (pH 7.5), 5 mM EDTA, 150 mM NaCl, 2 mM ATP, and 1% Triton]. Cell lysates were subsequently centrifuged at 15,000 rpm and 4°C for 15 minutes, and then a protein concentration was determined using the Pierce BCA Protein Assay Kit (Thermo Fisher Scientific). Cell lysates were boiled for 5 min at 95 °C in a 6xSDS sample buffer [350 mM Tris-HCl (pH 6.8), 350 mM SDS, 30% (v/v) glycerol, 4% β-mercaptoethanol, 180 µM bromophenol blue]. Prepared samples (15 µg of proteins) were separated by SDS-PAGE (10, 12, or 16% Bis-Tris gels; 50 V for 5 min, then 200 V) and transferred onto a 0.45 µm nitrocellulose membrane (Bio-Rad). For LC3 level analysis, the 0.2 µm nitrocellulose membrane (Bio-Rad) was used. Membranes were blocked in Intercept® (TBS) Blocking Buffer (LI-COR Biosciences) for 1 h at room temperature and then incubated with primary antibodies in Intercept® (TBS) Blocking Buffer with 0.1% Tween-20 overnight at 4°C. Used primary antibodies: anti-NFE2L1/TCF11/SKN1/NRF1 monoclonal antibody (Cell Signalling; #8052; anti-NQO1 polyclonal antibody (Sigma-Aldrich; # HPA007308; 1:5.000), anti-LC3 antibody […]
(Sigma-Aldrich; #L8918), anti-p62/SQSTM antibody (Sigma-Aldrich; #P0067), anti-β-actin monoclonal antibody (Sigma-Aldrich; #A5441; 1:10.000). The resulting membranes were washed and incubated with near-infrared fluorophore-conjugated goat anti-mouse IRDye […]
COR Biosciences; #926-32211; 1:15.000) for 1 h at room temperature. Membranes were imaged using Odyssey® M NIR Imaging System (LI-COR Biosciences) and quantified using Image Studio software v. 6.0 (LI-COR Biosciences). The protein levels were quantified by measuring the integrated fluorescence of the corresponding protein bands and normalized to the β-actin loading control. Changes in protein levels after treatment with RUN compounds were analyzed using paired t-tests with correction for multiple comparisons using the Holm-Šídák method (α = 0.05) in GraphPad Prism (v 10.6.1).
2.7 Proteasome activity assay […]

[1] = HEK293, 7.5 μM, 16 h, versus DMSO

| SMILES | LC3-I protein level, Treatment geometric mean | LC3-II protein level, Treatment geometric mean | HSPA1A protein level, Treatment geometric mean | LC3-total protein level, Treatment geometric mean | NFE2L1 protein level, Treatment geometric mean | NQO1 protein level, Treatment geometric mean | SQSTM1 protein level, Treatment geometric mean | HSPA1A protein level, geometric mean of ratios | LC3-II protein level, geometric mean of ratios | LC3-total protein level, geometric mean of ratios | NFE2L1 protein level, geometric mean of ratios | NQO1 protein level, geometric mean of ratios | SQSTM1 protein level, geometric mean of ratios | Total LC3 protein level [1] | NQO1 protein level [1] |
| --- | --- | --- | --- | --- | --- | --- | --- | --- | --- | --- | --- | --- | --- | --- | --- |
| COc1ccc(/C=C2\CC(N)C/C(=C\c3ccc(OC)c(OC)c3)C2=O)cc1OC (centres unmarked) [RUN-81] | 0.29 | 1.57 | 3.49 | 1.88 | 6.78 | 3.12 | 3.55 | 3.49 | 2.14 | 1.88 | 6.78 | 3.12 | 3.55 | – | – |
| COc1ccc(/C=C2\CC(NC(=O)C3CCCC3)C/C(=C\c3ccc(OC)c(OC)c3)C2=O)cc1OC (centres unmarked) [RUN-89] | 0.26 | 1.88 | 4.38 | 2.16 | 13.41 | 3.31 | 4.74 | 4.38 | 2.56 | 2.16 | 13.41 | 3.31 | – | significantly elevate | – |
| COc1ccc(/C=C2\CC(NC(=O)c3ccccn3)C/C(=C\c3ccc(OC)c(OC)c3)C2=O)cc1OC (centres unmarked) [RUN-94] | 0.38 | 1.72 | 3.12 | 2.14 | 14.37 | 4.16 | 5.55 | 3.12 | 2.35 | 2.14 | 14.37 | 4.16 | 5.55 | significantly elevate | notably boosting |
